According to US20230172957A1, “USE OF ASTRAGALUS MEDICINAL COMPOSITION FOR PREPARING DRUG FOR ENHANCING CANCER THERAPY” (PHYTOHEALTH CORPORATION, priority 2020, published 2023):
Several values for one entry are separate records, joined by “and”; a condition that tells them apart may be missing. Identical values can stand only once.

Experiments:
[1] = tested on: OVCAR cells; assay: Cell viability of ovarian cancer cell line measured by MTS (poisonous dose test and chemotherapeutic synergism); format: cell-based
Procedure: (1) Poisonous dose test (the chemotherapy drug dose for inhibiting the cell growth and leaving 60˜70% of growth capability is selected for subsequent test). (2) The cells are inoculated in 96-well plate and cultured for 24 hours. (3) Test drugs at different concentrations are added in, the test concentrations of the r-APS are 0, 2 and 4 mg/ml, the test concentrations of the astragalus pharmaceutical composition comprising the r-APS and the mannose (r-APS+mannose) are 0, 5 and 10 mg/ml. (4) The dose with a poisoning effect on 35-40% of individual cells is selected as chemotherapy drug dose. (5) The cell viability is tested in 48 and 72 hours respectively after addition. (6) Experiment on chemotherapeutic synergism of the r-APS and the astragalus pharmaceutical composition comprising the r-APS and the mannose (r-APS+mannose). (7) The cells are inoculated in 96-well plate and cultured for 24 hours. (8) The r-APS or the astragalus pharmaceutical composition comprising the r-APS and the mannose (r-APS+mannose) in combination with chemotherapy drug are cultured for 48 hours, the dose of the r-APS and the astragalus pharmaceutical composition comprising the r-APS and the mannose (r-APS+mannose) is three poisonous doses for test, the cell viability is measured by MTS in 48 hours.

[2] = tested on: HCT116 cells; assay: Cell viability of colorectal cancer cells measured by MTS (poisonous dose test and chemotherapeutic synergism); format: cell-based
Procedure: (1) First of all, poisonous dose test (the chemotherapy drug dose for inhibiting the cell growth and leaving 60˜70% of growth capability is selected for subsequent test) (2) The cells are inoculated in 96-well plate and cultured for 24 hours. (3) Test drugs at different concentrations are added in, the test concentrations of the r-APS are 0, 2 and 4 mg/ml, the test concentrations of the astragalus pharmaceutical composition comprising the r-APS and the mannose (r-APS+mannose) are 0, 5 and 10 mg/ml. (4) The dose with a poisoning effect on 35˜40% of individual cells is selected as chemotherapy drug dose. (5) The cell viability is tested in 48 and 72 hours respectively after addition. (6) Experiment on chemotherapeutic synergism of the r-APS and the astragalus pharmaceutical composition comprising the r-APS and the mannose (r-APS+mannose): (7) The cells are inoculated in 96-well plate and cultured for 24 hours. (8) The r-APS or the astragalus pharmaceutical composition comprising the r-APS and the mannose (r-APS+mannose) in combination with chemotherapy drug are cultured for 48 hours, the doses of the r-APS and the astragalus pharmaceutical composition comprising the r-APS and the mannose (r-APS+mannose) are selected four poisonous doses for test, and then the cell viability is measured by MTS in 48 hours.

[3] = Olaparib 0.2M, poisonous dose test
[4] = Olaparib 0.4M, poisonous dose test
[5] = Olaparib 0.6M, poisonous dose test
[6] = Olaparib 0.8M, poisonous dose test
[7] = Olaparib 1M, poisonous dose test
[8] = Olaparib alone (0 mg/ml test drug), 48 hours
[9] = Regorafenib 0.01 mM alone (0 mg/ml test drug), HCT116, 48 hours
[10] = Regorafenib 0.01 mM, HCT116, poisonous dose test

Structure (SMILES): O=C(c1cc(Cc2n[nH]c(=O)c3ccccc23)ccc1F)N1CCN(C(=O)C2CC2)CC1 [Olaparib]
- Cell viability (%) [1, 3]: 100.55%
- Mean value (MEAN) of three repeats (raw reading) [1, 3]: 0.984
- Cell viability (%) [1, 4]: 90.32%
- Mean value (MEAN) of three repeats (raw reading) [1, 4]: 0.884
- Cell viability (%) [1, 5]: 75.13%
- Mean value (MEAN) of three repeats (raw reading) [1, 5]: 0.735
- cell viability of cancer cells poisoned to ([1]; Olaparib 0.7M, poisonous dose test): 60%
- Cell viability (%) [1, 6]: 48.72%
- Mean value (MEAN) of three repeats (raw reading) [1, 6]: 0.477
- Cell viability (%) [1, 7]: 18.74%
- Mean value (MEAN) of three repeats (raw reading) [1, 7]: 0.183
- Cell viability (%) [1, 8]: 60.189% and 61.4%
- Mean value (MEAN) of three repeats (raw reading) [1, 8]: 0.595 and 0.605

Structure (SMILES): CNC(=O)c1cc(Oc2ccc(NC(=O)Nc3ccc(Cl)c(C(F)(F)F)c3)c(F)c2)ccn1 [Regorafenib]
- viability at 0.01 µM ([2]; Homo sapiens, HCT-116, Regorafenib 0.00001 mM, HCT116, poisonous dose test): 110%
- viability at 0.1 µM ([2]; Homo sapiens, HCT-116, Regorafenib 0.0001 mM, HCT116, poisonous dose test): 107%
- viability at 1 µM ([2]; Homo sapiens, HCT-116, Regorafenib 0.001 mM, HCT116, poisonous dose test): 94.4%
- viability at 10 µM ([2]; Homo sapiens, HCT-116, Regorafenib 0.01 mM, HCT116, poisonous dose test): 60%
- viability at 100 µM ([2]; Homo sapiens, HCT-116, Regorafenib 0.1 mM, HCT116, poisonous dose test): 9.2%
- Mean value (MEAN) of three repeats (raw reading) ([2]; Regorafenib 0.00001 mM, HCT116, poisonous dose test): 1.103
- Mean value (MEAN) of three repeats (raw reading) ([2]; Regorafenib 0.0001 mM, HCT116, poisonous dose test): 1.075
- Mean value (MEAN) of three repeats (raw reading) ([2]; Regorafenib 0.001 mM, HCT116, poisonous dose test): 0.950
- Cell viability (%) [2, 9]: 71.4% and 71.43%
- Mean value (MEAN) of three repeats (raw reading) [2, 9]: 0.641
- Cell viability (%) [2, 10]: 63.5%
- Mean value (MEAN) of three repeats (raw reading) [2, 10]: 0.639
- Mean value (MEAN) of three repeats (raw reading) ([2]; Regorafenib 0.1 mM, HCT116, poisonous dose test): 0.093
